The values below come from article PMC12716008 (Chemistry & Biodiversity, 2025).

Experiment [1] relates to Mycobacterium tuberculosis H37Rv (ATCC 27264). The experiment is described as follows: Antimycobacterial activity, microtitre Alamar Blue/Presto Blue assay (MIC). The experiment is classed as cell-based. To be noted: 120 h, read-out: M. tb MIC.
Experiment [2] relates to Mycobacterium smegmatis (MC^2 155). The experiment is described as above. The experiment is classed as cell-based. To be noted: Mycolicibacterium smegmatis, read-out: M. smeg MIC.
The subject of experiment [3] is M. smegmatis biofilm formation. The experiment is described as follows: Mycobacterial biofilm inhibition, microtitre antibiofilm assay (MBIC). Type of experiment: cell-based, Mycobacterium smegmatis. As to conditions: 2–4 days, 37°C, read-out: M. smeg MBIC.
Experiment [4] has as its system methicillin‐sensitive S. aureus (MSSA) UAMS‐1. Nature of the experiment: Antistaphylococcal activity, broth microdilution (MIC). The experiment is classed as cell-based. To be noted: Staphylococcus aureus, read-out: MSSA MIC. (In general: In broth dilution the organism is exposed to a series of concentrations in liquid medium.)
The test system of experiment [5] is methicillin‐resistant S. aureus (MRSA) AH1263 or LAC. Described as above. The experiment is classed as cell-based, Staphylococcus aureus. As to conditions: Staphylococcus aureus, MRSA, 18 h, read-out: MRSA MIC.
The test system of experiment [6] is MSSA UAMS‐1 biofilm formation. The experiment is described as follows: Staphylococcal biofilm inhibition, crystal violet microtitre test (MBIC). To be noted: Staphylococcus aureus, 22 h, read-out: MSSA MBIC. Type of experiment: cell-based.
In experiment [7] the test system is MRSA AH1263 or LAC biofilm formation. The experiment is described as above. The experiment is classed as cell-based. As to conditions: Staphylococcus aureus, 22 h, read-out: MRSA MBIC.
Experiment [8] concerns African green monkey kidney (Vero) cell line. The experiment is described as follows: Cytotoxicity, Presto Blue cell viability. The experiment is classed as cell-based. To be noted: Chlorocebus sabaeus, Vero, 72 h, read-out: Vero IC50 ± SD. The protocol:
(§1) The human monocyte (U937) and African green monkey kidney (Vero) cell lines were used in this study to determine the cytotoxic potential of the quinoline derivatives. The cell lines were purchased from Separation Scientific SA (Pty) Ltd. (Johannesburg, South Africa) and maintained in Roswell Park Memorial Institute (RPMI) 1640 and Eagle's Minimal Essential Medium (EMEM), supplemented with 10% heat‐inactivated foetal bovine serum (FBS), 1% antibiotics (100 U/mL penicillin and 100 µg/mL streptomycin) and 1% antifungal agent (250 µg/mL amphotericin B) as previously described. The cells were cultured at 37°C, 5% CO2 in a humidified incubator to 80% confluency. Detachment was achieved by rinsing the cells with phosphate buffer saline followed by the addition of trypsin–EDTA (0.25% trypsin containing 0.01% EDTA). After 5 min, the reaction was inhibited through the addition of supplemented media.
(§2) Cell viability was assessed through the method described by Lall et al., using Presto Blue as the viability reagent. The cells were seeded in a flat‐bottom 96‐well plate (100 µL) at a concentration of 1.0 × 10^6 cells/mL and allowed to adhere for 24 h. The samples were prepared in DMSO at a stock concentration of 20 mM, serially diluted in complete media and added to the plate at a final concentration range of 0.78–100 µM. Controls included a vehicle control (2% DMSO), an untreated cell control, a 0% control (no cells) and actinomycin D, as the positive control, at a final test concentration range of 3.9 × 10^−4 to 0.05 µg/mL. Cells were incubated for 72 h, followed by the addition of 20 µL of Presto Blue reagent to all the wells and an additional 2 h incubation. Cell viability was measured using a VICTOR Nivo Multimode Microplate Reader (PerkinElmer) at an excitation/emission wavelength of 540/590 nm.
(§3) All results are presented as the mean ± standard deviation (where applicable) of experiments done in triplicate and in two or three independent experiments (as stated in each methods section). Descriptive analysis was used to directly compare and rank the compounds and derivatives based on their activity in the biological assays. Additionally, by comparing the antibiofilm activity to the antibacterial activity and the antibacterial activity to the cytotoxicity, selectivity indices were used to assess the preferential activity of the compounds.

In experiment [9] the test system is human monocyte (U937) cell line. Nature of the experiment: Cytotoxicity, Presto Blue cell viability. As to conditions: U-937, 72 h, U937 cells, 72 h, read-out: U937 IC50 ± SD. The experiment is classed as cell-based. The protocol:
as §1, §2, §3

The test system of another experiment is hepatoma (Hep3B). To be noted: cited from earlier work.

≈ marks a conversion by molar mass, not a printed value. Like-named read-outs stand apart in the source and are kept apart here. Where only a bound is given, the exact number is not on record here.

Consider `CC(C)=CCOc1cccc2cccnc12` [QD‐3], for which the MIC (as a rule, the least concentration at which growth counts as inhibited) was 100 µM (≈ 21.3 µg/mL) in experiment [1] (M. tuberculosis H37Rv, 5 days, 37°C); over 100 µM in [2] (MC^2155, M. smegmatis, 24 h, 37°C); 300 µM (≈ 64.1 µg/mL) in experiment [4] (S. aureus UAMS‐1, 18 h); 300 µM (≈ 64.1 µg/mL) in experiment [5] (S. aureus AH1263/LAC). Also, the values for the minimal effective concentration in experiment [3] (Mycolicibacterium smegmatis), in [6] (S. aureus UAMS‐1 biofilm) and in experiment [7] (S. aureus AH1263/LAC biofilm) were 100 µM, 601 µM and 601 µM, respectively. The IC50 (in general, the midpoint of a concentration-inhibition curve) in experiment [8] (Vero cells) is over 100 µM; in experiment [9] it was 83.83 ± 0.8 µM.

Consider `O=Cc1ccc2cccc(O)c2n1` [HQ‐4, 8‐hydroxyquinoline‐2‐carbaldehyde, reference compound], for which the MIC in experiment [1] is 1 µM (≈ 0.173 µg/mL); in [2] (MC^2155, 24 h) it was over 100 µM; in [4] (18 h), 370 µM (≈ 64.1 µg/mL); in [5] it was 370 µM (≈ 64.1 µg/mL). Moreover, the figures for the minimal effective concentration in experiment [3], in experiment [6] and in experiment [7] were over 100 µM, 740 µM and 740 µM, respectively. Also, the IC50 in experiment [8] is over 100 µM. The MTS50 in the experiment on hepatoma (Hep3B) is 6.25 ± 0.034 µg/mL.
